This assay addresses T1, G protein-coupled receptor 119 (GPR-119) (Mesocricetus auratus, UniProt A0A1U8CD06).
T1 construct: hamster-derived β-cells containing G protein-coupled receptor 119 (GPR-119), HIT-T15 cells; host or cells: HIT-T15 (hamster pancreatic β-cells)
T1 sequence (A0A1U8CD06 1-334): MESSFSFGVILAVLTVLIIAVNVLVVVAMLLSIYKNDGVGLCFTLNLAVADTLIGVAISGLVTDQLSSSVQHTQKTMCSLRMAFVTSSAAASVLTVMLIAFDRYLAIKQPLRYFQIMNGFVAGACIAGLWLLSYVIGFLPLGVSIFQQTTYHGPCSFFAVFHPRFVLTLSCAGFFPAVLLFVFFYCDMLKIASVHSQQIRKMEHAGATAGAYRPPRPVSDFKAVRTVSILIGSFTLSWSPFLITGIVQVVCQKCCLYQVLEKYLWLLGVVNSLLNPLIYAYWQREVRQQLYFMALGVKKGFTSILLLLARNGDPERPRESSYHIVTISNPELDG
As to the kind of experiment: Evaluation of cAMP activity in HIT-T15 cells (HTRF cAMP dynamic kit). To be noted: cAMP activation. The format is cell-based, hamster. In outline:
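HIT-T15 cells, 60,000/well, treated next day with compound at six concentrations ([…]) for 1 h at 37° C. Lysate cAMP quantified by HTRF competitive immunoassay (D2-cAMP, cryptate anti-cAMP); activity taken as change in FRET signal relative to DMSO.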
(In general: TR-FRET usually uses a lanthanide donor and a delayed reading to cut background.)

Setting [1] is: 1 h at 37° C., six concentrations, read-out: EC50.

Read-outs that look alike come from different tables or passages of the source.

For the molecule `CC(C)c1noc(N2CCC(COc3ccc(C4=CCC(C(=O)N(C)CCCNC(=O)OC(C)(C)C)CC4)cc3)CC2)n1` (stereo not drawn) [Example 76, tert-butyl 3-(4-(4-((1-(3-isopropyl-1,2,4-oxadiazol-5-yl)piperidin-4-yl)methoxy)phenyl)-N-methylcyclohex-3-enecarboxamido)propylcarbamate], the EC50 (commonly the midpoint of the concentration-response curve) is 0.012 µM under setting [1] and at most 0.05 µM (read-out: EC50 value).

As to `CC(C)c1noc(N2CCC(COc3ccc(C4=CCC(C(=O)N(C)CCCN)CC4)cc3)CC2)n1` (stereo not drawn) [Example 77, N-(3-aminopropyl)-4-(4-((1-(3-isopropyl-1,2,4-oxadiazol-5-yl)piperidin-4-yl)methoxy)phenyl)-N-methylcyclohex-3-enecarboxamide], the EC50 is, setting by setting: under setting [1], 0.012 µM; (read-out: EC50 value) at most 0.05 µM.

With `CC(C)c1noc(N2CCC(COc3ccc(C4=CCC(C(=O)NCC(F)(F)F)CC4)cc3)CC2)n1` (stereo not drawn) [Example 78, 4-(4-((1-(3-isopropyl-1,2,4-oxadiazol-5-yl)piperidin-4-yl)methoxy)phenyl)-N-(2,2,2-trifluoroethyl)cyclohex-3-enecarboxamide], under setting [1], the EC50 is 0.1 µM.

Consider `CCN1CCN(C(=O)C2CC=C(c3ccc(OCC4CCN(c5nc(C(C)C)no5)CC4)cc3)CC2)CC1` (stereo not drawn) [Example 79, (4-ethylpiperazin-1-yl)(4-(4-((1-(3-isopropyl-1,2,4-oxadiazol-5-yl)piperidin-4-yl)methoxy)phenyl)cyclohex-3-enyl)methanone], for which the EC50 is, setting by setting: under setting [1], 0.049 µM; (read-out: EC50 value) at most 0.05 µM.

Turning to `CC(C)c1noc(N2CCC(COc3ccc(C4=CCC(C(=O)N(C)CCO)CC4)cc3F)CC2)n1` (stereo not drawn) [Example 81, 4-(3-fluoro-4-((1-(3-isopropyl-1,2,4-oxadiazol-5-yl)piperidin-4-yl)methoxy)phenyl)-N-(2-hydroxyethyl)-N-methylcyclohex-3-enecarboxamide], the EC50 reads like this: under setting [1], 0.009 µM; (read-out: EC50 value) at most 0.05 µM.

Turning to `CC(C)(CO)CNC(=O)C1CC=C(c2ccc(OCC3CCN(C(=O)OC(C)(C)C)CC3)c(F)c2)CC1` (stereo not drawn) [Example 82, tert-butyl 4-((2-fluoro-4-(4-(3-hydroxy-2,2-dimethylpropylcarbamoyl)cyclohex-1-enyl)phenoxy)methyl)piperidine-1-carboxylate], the EC50 under setting [1] came out at 0.009 µM and the EC50 (read-out: EC50 value) was at most 0.05 µM.

As to `CC(C)c1noc(N2CCC(COc3ccc(C4=CCC(C(=O)N[C@@H](C)CO)CC4)cc3F)CC2)n1` (stereo partly drawn) [Example 83, 4-(3-fluoro-4-((1-(3-isopropyl-1,2,4-oxadiazol-5-yl)piperidin-4-yl)methoxy)phenyl)-N-((S)-1-hydroxypropan-2-yl)cyclohex-3-enecarboxamide], the EC50 under setting [1] stood at 0.075 µM.

For the molecule `CC(C)c1noc(N2CCC(COc3ccc(C4=CCC(C(=O)N[C@H](C)CO)CC4)cc3F)CC2)n1` (stereo partly drawn) [Example 84, 4-(3-fluoro-4-((1-(3-isopropyl-1,2,4-oxadiazol-5-yl)piperidin-4-yl)methoxy)phenyl)-N-((R)-1-hydroxypropan-2-yl)cyclohex-3-enecarboxamide], the concentration giving a half-maximal response (EC50) runs as follows: under setting [1], 0.03 µM; (read-out: EC50 value) at most 0.05 µM.

On to `CC(C)(C)OC(=O)N1CCC(COc2ccc(C3=CCC(C(=O)NCC(F)F)CC3)cc2F)CC1` (stereo not drawn) [Example 85, tert-butyl 4-((4-(4-(2,2-difluoroethylcarbamoyl)cyclohex-1-enyl)-2-fluorophenoxy)methyl)piperidine-1-carboxylate], for which the EC50 is, setting by setting: under setting [1], 0.018 µM; (read-out: EC50 value) at most 0.05 µM.

In the case of `CC(C)(C)OC(=O)N1CCC(COc2ccc(C3=CCC(C(=O)NCC(F)(F)F)CC3)cn2)CC1` (stereo not drawn) [Example 86, tert-butyl 4-((5-(4-(2,2,2-trifluoroethylcarbamoyl)cyclohex-1-enyl)pyridin-2-yloxy)methyl)piperidine-1-carboxylate], the EC50 under setting [1] came out at 0.13 µM.

Consider `CC(C)(C)OC(=O)N1CCC(COc2ccc(C3=CCC(C(=O)NCC(F)F)CC3)cn2)CC1` (stereo not drawn) [Example 87, tert-butyl 4-((5-(4-(2,2-difluoroethylcarbamoyl)cyclohex-1-enyl)pyridin-2-yloxy)methyl)piperidine-1-carboxylate], for which the EC50 under setting [1] amounted to 0.07 µM.

`CC(C)(C)OC(=O)N1CCC(COc2ccc(C3=CCC(C(=O)NCCF)CC3)cn2)CC1` (stereo not drawn) [Example 88, tert-butyl 4-((5-(4-(2-fluoroethylcarbamoyl)cyclohex-1-enyl)pyridin-2-yloxy)methyl)piperidine-1-carboxylate]: under setting [1], the EC50 worked out at 0.13 µM.

Turning to `CC(C)c1noc(N2CCC(COc3ccc(C4=CCC(C(=O)N5CCN(C6CC6)CC5)CC4)cc3)CC2)n1` (stereo not drawn) [Example 89, (4-cyclopropylpiperazin-1-yl)(4-(4-((1-(3-isopropyl-1,2,4-oxadiazol-5-yl)piperidin-4-yl)methoxy)phenyl)cyclohex-3-enyl)methanone], the EC50 is 0.021 µM under setting [1] and at most 0.05 µM (read-out: EC50 value).

For the molecule `CC(C)(C)OC(=O)N1CCC(COc2ccc(C3=CCC(C(=O)N4CC[C@@H](F)C4)CC3)cn2)CC1` (stereo partly drawn) [Example 90, tert-butyl 4-((5-(4-((R)-3-fluoropyrrolidine-1-carbonyl)cyclohex-1-enyl)pyridin-2-yloxy)methyl)piperidine-1-carboxylate], the EC50 runs as follows: under setting [1], 0.024 µM; (read-out: EC50 value) at most 0.05 µM.

With `CC(C)(C)OC(=O)N1CCC(COc2ccc(C3=CCC(C(=O)N4CC[C@H](F)C4)CC3)cn2)CC1` (stereo partly drawn) [Example 91, tert-butyl 4-((5-(4-((S)-3-fluoropyrrolidine-1-carbonyl)cyclohex-1-enyl)pyridin-2-yloxy)methyl)piperidine-1-carboxylate], the EC50 is 0.028 µM under setting [1] and at most 0.05 µM (read-out: EC50 value).

For `CC(C)c1noc(N2CCC(COc3ccc(C4=CCC(C(=O)NCC(F)(F)F)CC4)cc3F)CC2)n1` (stereo not drawn) [Example 92, 4-(3-fluoro-4-((1-(3-isopropyl-1,2,4-oxadiazol-5-yl)piperidin-4-yl)methoxy)phenyl)-N-(2,2,2-trifluoroethyl)cyclohex-3-enecarboxamide], the EC50 under setting [1] was determined as 0.064 µM.

For `CC(C)c1noc(N2CCC(COc3ccc(C4=CCC(C(=O)NCC(F)F)CC4)cc3F)CC2)n1` (stereo not drawn) [Example 93, N-(2,2-difluoroethyl)-4-(3-fluoro-4-((1-(3-isopropyl-1,2,4-oxadiazol-5-yl)piperidin-4-yl)methoxy)phenyl)cyclohex-3-enecarboxamide], the EC50 under setting [1] was determined as 0.05 µM and the EC50 (read-out: EC50 value) was at most 0.05 µM.

With `CC(C)c1noc(N2CCC(COc3ccc(C4=CCC(C(=O)NCCF)CC4)cc3F)CC2)n1` (stereo not drawn) [Example 94, 4-(3-fluoro-4-((1-(3-isopropyl-1,2,4-oxadiazol-5-yl)piperidin-4-yl)methoxy)phenyl)-N-(2-fluoroethyl)cyclohex-3-enecarboxamide], the EC50 under setting [1] was determined as 0.068 µM.

Regarding `CC(C)c1noc(N2CCC(COc3ccc(C4=CCC(C(=O)N5CC[C@H](F)C5)CC4)cc3F)CC2)n1` (stereo partly drawn) [Example 95, (4-(3-fluoro-4-((1-(3-isopropyl-1,2,4-oxadiazol-5-yl)piperidin-4-yl)methoxy)phenyl)cyclohex-3-enyl)((S)-3-fluoropyrrolidin-1-yl)methanone], under setting [1], the EC50 worked out at 0.016 µM.

Regarding `CC(C)c1noc(N2CCC(COc3ccc(C4=CCC(C(=O)N5CC[C@@H](F)C5)CC4)cc3F)CC2)n1` (stereo partly drawn) [Example 96, (4-(3-fluoro-4-((1-(3-isopropyl-1,2,4-oxadiazol-5-yl)piperidin-4-yl)methoxy)phenyl)cyclohex-3-enyl)((R)-3-fluoropyrrolidin-1-yl)methanone], the EC50 is, setting by setting: under setting [1], 0.027 µM; (read-out: EC50 value) at most 0.05 µM.

Take `CC(C)c1noc(N2CCC(COc3ccc(C4=CCC(C(=O)N5CCOCC5)CC4)cc3F)CC2)n1` (stereo not drawn) [Example 97, (4-(3-fluoro-4-((1-(3-isopropyl-1,2,4-oxadiazol-5-yl)piperidin-4-yl)methoxy)phenyl)cyclohex-3-enyl)(morpholino)methanone]: the EC50 runs as follows: under setting [1], 0.0084 µM; (read-out: EC50 value) at most 0.05 µM.

On to `CC(C)c1noc(N2CCC(COc3ccc(C4=CCC(C(=O)N5CCSCC5)CC4)cc3F)CC2)n1` (stereo not drawn) [Example 98, (4-(3-fluoro-4-((1-(3-isopropyl-1,2,4-oxadiazol-5-yl)piperidin-4-yl)methoxy)phenyl)cyclohex-3-enyl)(thiomorpholino)methanone], for which the EC50 was 0.0061 µM under setting [1] and at most 0.05 µM (read-out: EC50 value).

As for `CC(C)c1noc(N2CCC(COc3ccc(C4=CCC(C(=O)NCC(F)F)CC4)nc3)CC2)n1` (stereo not drawn) [Example 99, N-(2,2-difluoroethyl)-4-(5-((1-(3-isopropyl-1,2,4-oxadiazol-5-yl)piperidin-4-yl)methoxy)pyridin-2-yl)cyclohex-3-enecarboxamide], the EC50 under setting [1] amounted to 0.16 µM.

On to `CC(C)c1noc(N2CCC(COc3ccc(C4=CCC(C(=O)N5CCOCC5)CC4)nc3)CC2)n1` (stereo not drawn) [Example 100, (4-(5-((1-(3-isopropyl-1,2,4-oxadiazol-5-yl)piperidin-4-yl)methoxy)pyridin-2-yl)cyclohex-3-enyl)(morpholino)methanone], for which the EC50 under setting [1] was 0.095 µM.

As to `CC(C)c1noc(N2CCC(COc3ccc(C4=CCC(C(=O)N5CC[C@@H](F)C5)CC4)nc3)CC2)n1` (stereo partly drawn) [Example 101, ((R)-3-fluoropyrrolidin-1-yl)(4-(5-((1-(3-isopropyl-1,2,4-oxadiazol-5-yl)piperidin-4-yl)methoxy)pyridin-2-yl)cyclohex-3-enyl)methanone], under setting [1], the EC50 amounted to 0.11 µM.

The values above are taken from patent US9758527B2, “Cyclohexene derivative, preparation method therefor, and pharmaceutical composition for preventing or treating metabolic diseases, containing same as active ingredient” (HYUNDAI PHARM CO., LTD., priority 2014, dated 2017).
